Key:
[1] = system: HIF-1α, VEGF, GLUT1 and EPO levels in HEK293 cells; assay: Western blotting of HIF-1α and HIF-1α target gene products in HEK293 cells; type: cell-based, Human; details: 2 h
Description: (§1) FIG. 3 depicts the effect of complex 1a on HIF-1α target gene products in cellulo. (A) Effect of complex 1a on specific proteins (GLUT1, VEGF, and EPO) mediated by HIF-1α in HEK293 cells. HEK293 cells were treated with 1a for 2 h. Cell lysis were collected and analyzed by the Western blotting. (B) Complex 1a has no effect on HIF-1α accumulation in a VHL null cancer cell line. A498 (VHL-null), or HEK293 cells were treated with 1% DMSO, 1a (3 μM), VH298 (100 μM), and FG-4592 (100 μM) for 2 h before lysis. (C) Effect of complex 1a on EPO, GLUT1, and VEGF levels in HEK293 cells with or without HIF-1α knockdown. Left: The expression levels of EPO, GLUT1, and VEGF in HEK293 cells with or without knockdown HIF-1α in the presence or absence of 1a. Right: Densitometry analysis of EPO, GLUT1, and VEGF levels on the Western blot. HIF-1α siRNA [sense, 5′-[…]-3′ (SEQ ID NO:1), antisense, 5′-[…]-3′ (SEQ ID NO:2)]. Negative control (NC) siRNA [sense, 5′-[…]-3′ (SEQ ID NO:3), antisense, 5′-[…]-3′ (SEQ ID NO:4)]. Data are expressed as means±SD (n=3 independent experiments), P values were calculated using a two-sided t-test. #P<0.05, P<0.01 HIF-1α siRNA vs. NC siRNA, *P<0.05, **P<0.01 1a vs. vehicle/DMSO group, respectively.
Therefore, the effect of complex 1a on HIF-1α and HIF-1α target protein levels in cellulo was investigated. […]

[2] = system: HIF-1α levels in A498 (VHL-null) cells; assay: HIF-1α accumulation in VHL-null A498 cells; type: cell-based; details: 1a 3 μM, VH298 100 μM, 2 h
Description: as §1, with “respectively. […]” for “respectively.”

VHL-HIF-1α interaction = target: T1, VHL-HIF-1α interaction (Homo sapiens, UniProt P40337); assay: Co-immunoprecipitation of hydroxy-HIF-1α with VHL in HEK293 cells; type: cell-based; details: HEK293 cells, 0.3, 1, 3, 6 and 9 μM for 2 h
T1 construct: endogenous in cells; host or cells: HEK293
T1 sequence (P40337 whole entry): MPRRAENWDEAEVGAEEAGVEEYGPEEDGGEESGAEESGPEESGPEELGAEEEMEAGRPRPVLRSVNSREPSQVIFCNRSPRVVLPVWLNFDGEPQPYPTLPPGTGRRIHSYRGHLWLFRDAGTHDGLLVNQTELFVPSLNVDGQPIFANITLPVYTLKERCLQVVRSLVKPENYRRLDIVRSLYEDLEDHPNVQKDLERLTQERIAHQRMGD
T1 sequence (Q15370 whole entry partner): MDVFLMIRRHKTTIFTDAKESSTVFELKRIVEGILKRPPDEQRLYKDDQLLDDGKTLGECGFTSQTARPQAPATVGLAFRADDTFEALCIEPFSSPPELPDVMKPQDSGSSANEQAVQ
T1 sequence (Q15369 whole entry partner): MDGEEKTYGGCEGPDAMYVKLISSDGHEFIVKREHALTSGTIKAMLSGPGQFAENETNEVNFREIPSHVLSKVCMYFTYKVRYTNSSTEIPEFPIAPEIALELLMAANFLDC
Description: HEK293 cells were treated with vehicle DMSO (1% for 2 h), 1a (0.3, 1, 3, 6 and 9 μM for 2 h), VH298 (100 μM for 2 h), MG132 (20 μM for 3 h), or FG-4592 (100 μM for 2 h) before lysis. Cell lysates were collected and incubated with VHL antibody overnight at 4° C. The proteins were immunoprecipitated using agarose beads. The levels of hydroxy-HIF-1α co-precipitated with VHL were detected using a hydroxy-HIF-1α antibody, and then visualized using ECL Western Blotting Detection Reagent (GE Healthcare). (B) Cellular thermal shift assays to monitor cellular target engagement of VHL and HIF-1α. HEK293 cell lysates were treated with 1a (3 μM) at room temperature for 30 min and then heated at different temperature ranging from 48° C. to 68° C. for 5 min. The protein samples were collected and detected by Western blotting using either VHL or PHD2 antibodies. (C) Fluorescence-based protein thermal shift assay of VBC in the presence or absence of VH298 (100 μM) and complex 1a (100 μM). (D) ITC titration of complex 1a (300 μM) into recombinant VHL protein (30 μM). ITC experiments were carried in a MicroCal PEAQ-ITC Isothermal Titration Calorimeter (Malvern Panalytical). […] Data are expressed as means±SD (n=3 independent experiments for figures a and b, samples for figures c and e), P values were calculated using a two-sided t-test. *P<0.05, **P<0.01 vs. DMSO group. […]

[3] = target: T2, human recombinant VHL:ElonginB:ElonginC (VBC) complex (Homo sapiens, UniProt P40337); assay: Isothermal titration calorimetry (ITC); type: binding
T2 construct: made in house
T2 sequence (P40337 whole entry): as the sequence (P40337 whole entry) above
T2 sequence (Q15370 whole entry partner): as the sequence (Q15370 whole entry partner) above
T2 sequence (Q15369 whole entry partner): as the sequence (Q15369 whole entry partner) above
Description: HEK293 cells were treated with vehicle DMSO (1% for 2 h), 1a (0.3, 1, 3, 6 and 9 μM for 2 h), VH298 (100 μM for 2 h), MG132 (20 μM for 3 h), or FG-4592 (100 μM for 2 h) before lysis. Cell lysates were collected and incubated with VHL antibody overnight at 4° C. The proteins were immunoprecipitated using agarose beads. The levels of hydroxy-HIF-1α co-precipitated with VHL were detected using a hydroxy-HIF-1α antibody, and then visualized using ECL Western Blotting Detection Reagent (GE Healthcare). (B) Cellular thermal shift assays to monitor cellular target engagement of VHL and HIF-1α. HEK293 cell lysates were treated with 1a (3 μM) at room temperature for 30 min and then heated at different temperature ranging from 48° C. to 68° C. for 5 min. The protein samples were collected and detected by Western blotting using either VHL or PHD2 antibodies. (C) Fluorescence-based protein thermal shift assay of VBC in the presence or absence of VH298 (100 μM) and complex 1a (100 μM). (D) ITC titration of complex 1a (300 μM) into recombinant VHL protein (30 μM). ITC experiments were carried in a MicroCal PEAQ-ITC Isothermal Titration Calorimeter (Malvern Panalytical). […] (F) Biolayer interferometry (BLI) kinetic analysis of the interaction between complex 1a and VBC. VBC was surface-immobilized to Ni-NTA biosensors. […] Data are expressed as means±SD (n=3 independent experiments for figures a and b, samples for figures c and e), P values were calculated using a two-sided t-test. *P<0.05, **P<0.01 vs. DMSO group.
After incubating HEK293 cell lysates with complex 1a followed by heating to set temperatures, VHL and PHD2 levels in the soluble fraction were quantitated by Western blotting.

COc1cc[n+]2c3c1ccc1c(OC)cc[n+](c13)[Ir-3]213([c]2ccccc2-c2cccc[n+]21)[c]1ccccc1-c1cccc[n+]13.F[P-](F)(F)(F)(F)F [1a]
Expression levels of HIF-1α, VEGF, GLUT1 and EPO [1]: increased in a dose-dependent manner | HIF-1α levels in A498 cells [2]: no increase in HIF-1α levels | Amount of HIF-1α-OH co-precipitating with VHL (VHL-HIF-1α interaction): reduced the amount of HIF-1α-OH co-precipitating with VHL in a dose-dependent manner | ΔG (ITC) [3]: -8.14 kcal/mol | ΔH (ITC) [3]: -7.85 kcal/mol | −TΔS (ITC) [3]: -0.29 kcal/mol | Kd ([3]; 300 μM complex titrated into 30 μM VBC, 25° C.): 1080 ± 200 nM

— US11958868B2, “Methods of using metal complexes to promote wound healing” (University of Macau, priority 2022, dated 2024)
